Assay results from ChEMBL document CHEMBL1201862, “PubChem BioAssay data set” (2004).
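Protocol summary: plate cells (96-well), add compound at 5 concentrations, incubate 48 h, interpolate endpoints linearly. GI50 is the concentration that inhibits growth by half.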 Calls of active or inactive are those of the source. No stated cut-off is given here; in the data, active = GI50 up to about 1.1 µM and inactive = higher.

Key:
Experiment in all cases: NCI-60 cell line screen, 48 h
[1] = test system: K562
[2] = test system: NCI-H460
[3] = test system: HCT-116
[4] = test system: OVCAR-8
[5] = test system: CAKI-1
[6] = test system: SN12C
[7] = test system: UACC-62
[8] = test system: U-251
[9] = test system: PC-3
[10] = test system: Malme-3M
[11] = test system: UO-31
[12] = test system: SR
[13] = test system: SF-268
[14] = test system: RPMI-8226
[15] = test system: RXF 393
[16] = test system: 786-0
[17] = test system: HCT-15
[18] = test system: CCRF-CEM
[19] = test system: OVCAR-5
[20] = test system: UACC-257
[21] = test system: DU-145
[22] = test system: BT-549
[23] = test system: M14
[24] = test system: COLO 205
[25] = test system: SF-295
[26] = test system: NCI-H226
[27] = test system: SNB-75
[28] = test system: SK-OV-3
[29] = test system: HOP-92
[30] = test system: HOP-62
[31] = test system: SK-MEL-2
[32] = test system: LOX IMVI
[33] = test system: A549
[34] = test system: SW-620
[35] = test system: TK-10
[36] = test system: MOLT-4
[37] = test system: NCI-H522
[38] = test system: EKVX
[39] = test system: ACHN
[40] = test system: IGROV-1
[41] = test system: HCC 2998
[42] = test system: OVCAR-4
[43] = test system: MDA-N
[44] = test system: SK-MEL-5
[45] = test system: MDA-MB-435
[46] = test system: MDA-MB-231
[47] = test system: MCF7
[48] = test system: HL-60
[49] = test system: Hs-578T
[50] = test system: KM12
[51] = test system: T47D
[52] = test system: HT-29
[53] = test system: NCI/ADR-RES
[54] = test system: SK-MEL-28
[55] = test system: SNB-19
[56] = test system: SF-539
[57] = test system: NCI-H23
[58] = test system: OVCAR-3

N#C/C(=C\c1ccc(Cl)cc1)c1nc2ccccc2c(=O)[nH]1
GI50 [1]: > 100 µM (inactive)
GI50 [2]: > 100 µM (inactive)
GI50 [3]: > 100 µM (inactive)
GI50 [4]: > 100 µM (inactive)
GI50 [5]: > 100 µM (inactive)
GI50 [6]: > 100 µM (inactive)
GI50 [7]: 43.7 µM (inactive)
GI50 [8]: 52.5 µM (inactive)
GI50 [9]: > 100 µM (inactive)
GI50 [10]: > 100 µM (inactive)
GI50 [11]: > 100 µM (inactive)
GI50 [12]: > 100 µM (inactive)
GI50 [13]: 51.6 µM (inactive)
GI50 [14]: > 100 µM (inactive)
GI50 [15]: 81.5 µM (inactive)
GI50 [16]: 44.4 µM (inactive)
GI50 [17]: > 100 µM
GI50 [18]: > 100 µM (inactive)
GI50 [19]: > 100 µM (inactive)
GI50 [20]: > 100 µM (inactive)
GI50 [21]: > 100 µM (inactive)
GI50 [22]: 23.4 µM (inactive)
GI50 [23]: > 100 µM (inactive)
GI50 [24]: > 100 µM (inactive)
GI50 [25]: 47.4 µM (inactive)
GI50 [26]: > 100 µM (inactive)
GI50 [27]: 17.1 µM (inactive)
GI50 [28]: > 100 µM (inactive)
GI50 [29]: 11 µM (inactive)
GI50 [30]: 33 µM (inactive)
GI50 [31]: > 100 µM (inactive)
GI50 [32]: > 100 µM (inactive)
GI50 [33]: > 100 µM (inactive)
GI50 [34]: > 100 µM (inactive)
GI50 [35]: 76 µM (inactive)
GI50 [36]: > 100 µM (inactive)
GI50 [37]: 37.4 µM (inactive)
GI50 [38]: > 100 µM (inactive)
GI50 [39]: 65.8 µM (inactive)
GI50 [40]: > 100 µM (inactive)
GI50 [41]: > 100 µM (inactive)
GI50 [42]: > 100 µM (inactive)
GI50 [43]: > 100 µM (inactive)
GI50 [44]: > 100 µM (inactive)
GI50 [45]: > 100 µM (inactive)
GI50 [46]: 33.8 µM (inactive)
GI50 [47]: > 100 µM (inactive)
GI50 [48]: > 100 µM (inactive)
GI50 [49]: 17.9 µM (inactive)
GI50 [50]: > 100 µM (inactive)
GI50 [51]: > 100 µM (inactive)
GI50 [52]: > 100 µM (inactive)
GI50 [53]: > 100 µM (inactive)
GI50 [54]: > 100 µM (inactive)
GI50 [55]: 85.9 µM (inactive)
GI50 [56]: > 100 µM (inactive)

Clc1cc(N/N=C(\c2ccccc2)c2ccccn2)ncn1
GI50 [1]: 0.0644 µM (active)
GI50 [2]: 0.0262 µM (active)
GI50 [3]: 0.0277 µM (active)
GI50 [4]: < 0.01 µM (active)
GI50 [57]: 0.0904 µM (active)
GI50 [5]: < 0.01 µM (active)
GI50 [7]: 0.308 µM (active)
GI50 [8]: 0.427 µM (active)
GI50 [9]: 0.0728 µM (active)
GI50 [10]: < 0.01 µM (active)
GI50 [11]: 0.324 µM (active)
GI50 [12]: 0.0942 µM (active)
GI50 [58]: 0.0223 µM (active)
GI50 [13]: 0.489 µM (active)
GI50 [14]: 0.0438 µM (active)
GI50 [15]: 5.08 µM (inactive)
GI50 [18]: < 0.01 µM (active)
GI50 [19]: 0.361 µM (active)
GI50 [20]: 0.0274 µM (active)
GI50 [21]: 0.5 µM (active)
GI50 [22]: 4.21 µM (inactive)
GI50 [23]: 0.0361 µM (active)
GI50 [24]: < 0.01 µM (active)
GI50 [25]: 0.502 µM (active)
GI50 [26]: 0.246 µM (active)
GI50 [27]: 20.7 µM (inactive)
GI50 [28]: 0.301 µM (active)
GI50 [29]: 2.44 µM (inactive)
GI50 [30]: 0.256 µM (active)
GI50 [31]: 4.78 µM (inactive)
GI50 [32]: 0.281 µM (active)
GI50 [33]: 0.55 µM (active)
GI50 [34]: 0.0238 µM (active)
GI50 [35]: 0.0363 µM (active)
GI50 [36]: 0.0308 µM (active)
GI50 [37]: < 0.01 µM (active)
GI50 [38]: 0.0215 µM (active)
GI50 [39]: 0.0266 µM (active)
GI50 [40]: 0.0308 µM (active)
GI50 [41]: 5.94 µM (inactive)
GI50 [42]: 10.9 µM (inactive)
GI50 [43]: 3.33 µM (inactive)
GI50 [44]: 0.254 µM (active)
GI50 [45]: 1.02 µM (active)
GI50 [46]: 0.0252 µM (active)
GI50 [47]: < 0.01 µM (active)
GI50 [49]: 3.38 µM (inactive)
GI50 [50]: 1.22 µM (inactive)
GI50 [51]: < 0.01 µM (active)
GI50 [52]: < 0.01 µM (active)
GI50 [53]: 0.0336 µM (active)
GI50 [54]: 1.44 µM (inactive)
GI50 [55]: 1.85 µM (inactive)
GI50 [56]: 0.197 µM (active)
